Data reported in patent US20130280258A1, “PROGNOSTIC, DIAGNOSTIC, AND CANCER THERAPEUTIC USES OF FANCI AND FANCI MODULATING AGENTS” (Miltenyi Biotec GmbH, priority 2007, published 2013).

Test system: U2OS cells
Assay: Multicolor competition assay (MCA) of DNA damage sensitivity
Assay type: cell-based
Details: 7 days of culture, read-out: concentration resulting in about 50% survival of non-transfected cells
Method: U2OS cells were infected with MSCVgfp or MSCVdsRed, which were packaged in 293T by co-transfection with VSVG vector using TransIT-293 (Minis). Without selection, the cells were sorted using the Aria Sorter (BD) for intermediate expression. The gfp cells grew slightly faster than the rfp cells and this was taken into account when calculating the changes in survival due to treatment with DNA damaging agents. siRNA transfections were performed as described above with gfp cells being transfected with a control siRNA (luciferase) and rfp cells with an siRNA of interest. On the third day after transfections, gfp and rfp cells were counted and mixed in 1 to 1 ratio and were left untreated or were treated with IR or MMC. The concentration of Mitomycin C (Sigma) was chosen to result in about 50% survival of non-transfected cells, which was about 70 nM MMC for U2OS cells. After 7 days of culture, all cells were collected and analyzed using Cytomix FC500 Analyzer (Beckman Coulter). […]
Two populations of U20S (osteosarcoma) cells differing only in their color were created by expression of red fluorescent protein (RFP) or green fluorescent protein (GFP). siRNA depletion of the protein of interest was carried out in the […] were transfected with control siRNA. […] After 7 days, cells were harvested and a ratio of red to green cells was determined using flow cytometry. […]

SMILES: CO[C@@]12[C@H](COC(N)=O)C3=C(C(=O)C(C)=C(N)C3=O)N1C[C@@H]1N[C@@H]12 [Mitomycin C]
- IC50: ~70 nM
